Experiments:
KRAS G12D [1] = target: T1, KRAS G12D (Homo sapiens, UniProt P01116, G12D); test: KRAS_G12D cellular pERK HTRF assay; assay type: cell-based; set-up: CRL-1997; host or cells: A427 or HPAF-II; conditions: KRAS G12D cells (A427, HPAF-II), 2 hours; read-out: G12D_pERK (KRAS_G12D pERK assay IC50)
Experimental: MIA PaCa-2 (KRAS G12C; ATCC® CRL-1420), A427 (KRAS G12D; ATCC® HTB53), HPAF-II (KRAS G12D; ATCC® CRL-1997) and NCI-H838 (KRAS WT; ATCC® CRL-5844) cells are purchased from ATCC and maintained in RPMI 1640 media supplemented with 10% FBS (Gibco/Life Technologies). The cells are plated at 5000 cells per well (8 uL) into Greiner 384-well low volume, flat-bottom, tissue culture treated white plates and incubated overnight at 37° C., 5% CO2. The next morning, test compound stock solutions are diluted in media at 3x the final concentration, and 4 uL are added to the cells. The plate is mixed by gentle rotation for 30 seconds (250 rpm) at room temperature. The cells are incubated with the KRAS G12C and G12D compounds for 4 hours or 2 hours respectively at 37° C., 5% CO2.
4 uL of 4x lysis buffer with blocking reagent (1:25) (Cisbio) are added to each well and plates are rotated gently (300 rpm) for 30 minutes at room temperature. 4 uL per well of Cisbio anti Phospho-ERK 1/2 d2 is mixed with anti Phospho-ERK 1/2 Cryptate (1:1) are added to each well, mixed by rotation and incubated overnight in the dark at room temperature. Plates are read on the Pherastar plate reader at 665 nm and 620 nm wavelengths. IC50 determination is performed by fitting the curve of inhibitor percent inhibition versus the log of the inhibitor concentration using the GraphPad Prism 7 software.

KRAS G12D [2] = target: T1, KRAS G12D; test: KRAS_G12D GDP-GTP exchange assay (bodipy-GDP/GppNHp, SOS1); assay type: biochemical; conditions: bodipy-loaded KRAS G12D 2.5 nM, 4 hours pre-incubation, 2 hours exchange; for IC50: read-out: G12D_exchange (KRAS_G12D exchange assay IC50)
Experimental: (§1) The inhibitor potency of the exemplified compounds was determined in a fluorescence based guanine nucleotide exchange assay, which measures the exchange of bodipy-GDP (fluorescently labeled GDP) for GppNHp (Non-hydrolyzable GTP analog) to generate the active state of KRAS in the presence of SOS1 (guanine nucleotide exchange factor). Inhibitors were serially diluted in DMSO and a volume of 0.1 μL was transferred to the wells of a black low volume 384-well plate. 5 μL/well volume of bodipy-loaded KRAS G12D diluted to 2.5 nM in assay buffer (25 mM Hepes pH 7.5, 50 mM NaCl, 10 mM MgCl2 and 0.01% Brij-35) was added to the plate and pre-incubated with inhibitor for 4 hours at ambient temperature. Appropriate controls (enzyme with no inhibitor or with a G12D inhibitor) were included on the plate. The exchange was initiated by the addition of a 5 μL/well volume containing 1 mM GppNHp and 300 nM SOS1 in assay buffer. The 10 μL/well reaction concentration of the bodipy-loaded KRAS G12D, GppNHp, and SOS1 were 2.5 nM, 500 uM, and 150 nM, respectively. The reaction plates were incubated at ambient temperature for 2 hours, a time estimated for complete GDP-GTP exchange in the absence of inhibitor. For the KRAS G12V mutant, similar guanine nucleotide exchange assays were used with 2.5 nM as final concentration for the bodipy loaded KRAS proteins and 3 hours incubation after adding GppNHp-SOS1 mixture. A cyclic peptide described to selectively bind G12D mutant (Sakamoto et al., BBRC 484.3 (2017), 605-611) or internal compounds with confirmed binding were used as positive controls in the assay plates. Fluorescence intensities were measured on a PheraStar plate reader instrument (BMG Labtech) with excitation at 485 nm and emission at 520 nm.
(§2) Either GraphPad prism or XLfit was used to analyze the data. The IC50 values were derived by fitting the data to a four parameter logistic equation producing a sigmoidal dose-response curve with a variable Hill coefficient. Prism equation: Y=Bottom+(Top−Bottom)/(1+10^((Log IC50−X)*Hill slope)); XLfit equation: Y=(A+((B−A)/(1+((X/C)^D)))) where X is the logarithm of inhibitor concentration and Y is the response.

KRAS G12V = KRAS G12V (Homo sapiens, UniProt P01116, G12V); test: KRAS_G12V GDP-GTP exchange assay (bodipy-GDP/GppNHp, SOS1); assay type: biochemical; conditions: bodipy loaded KRAS G12V 2.5 nM, 3 hours incubation after GppNHp-SOS1; read-out: G12V_exchange (KRAS_G12V exchange assay IC50)
Experimental: as §1, §2

T1 sequence (P01116 1-188 isoform P01116-2 G12D): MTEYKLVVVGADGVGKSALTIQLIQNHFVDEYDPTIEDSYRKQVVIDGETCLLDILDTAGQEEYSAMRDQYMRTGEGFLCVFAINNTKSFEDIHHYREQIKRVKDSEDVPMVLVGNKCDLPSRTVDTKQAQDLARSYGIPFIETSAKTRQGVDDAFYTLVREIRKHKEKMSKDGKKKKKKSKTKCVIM
Chain of KRAS G12V (P01116 1-188 isoform P01116-2 G12V): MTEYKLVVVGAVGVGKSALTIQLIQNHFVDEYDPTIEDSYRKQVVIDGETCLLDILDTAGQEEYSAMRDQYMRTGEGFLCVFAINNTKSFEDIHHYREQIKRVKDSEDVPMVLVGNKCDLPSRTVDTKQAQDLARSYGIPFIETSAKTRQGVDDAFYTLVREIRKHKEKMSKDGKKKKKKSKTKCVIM

| SMILES | IC50 (KRAS G12D [1]) [nM] | G12D_exchange (KRAS_G12D exchange assay IC50) (KRAS G12D [2]) | IC50 (KRAS G12V) [nM] | IC50 (KRAS G12D [2]) [nM] |
| --- | --- | --- | --- | --- |
| COC(=O)CCc1cc2c(OC[C@@]34CCCN3C[C@H](F)C4)nc3c(F)c(-c4cc(O)cc5ccccc45)ncc3c2n1C1C2CNC1C2 (single isomer, unassigned) [Example 2a] | 1000 to 5000 | † | 100 to 1000 |  |
| C[C@H](Oc1nc2c(F)c(-c3cccc4c3OCCC4)ncc2c2c1cc(C1CCc3cccc(=O)n31)n2[C@H]1[C@H]2CN[C@@H]1C2)[C@@H]1CCCN1C (single isomer, unassigned) [Example 20a] |  | † | ≤ 100 |  |
| CN(C)C(=O)CCc1nc2c(N3CC(N(C)C)C3)nc3c(F)c(-c4cccc5c4C(C#N)CC5)ncc3c2n1C1C2CNC1C2 (single isomer, unassigned) [Example 10b, 3-(1-((endo)-2-azabicyclo[2.1.1]hexan-5-yl)-7-(3-cyano-2,3-dihydro-1H-inden-4-yl)-4-(3-(dimethylamino)azetidin-1-yl)-6-fluoro-1H-imidazo[4,5-c][1,6]naphthyridin-2-yl)-N,N-dimethylpropanamide] |  |  |  | 1000 to 5000 |
| C[C@H](Oc1nc2c(F)c(-c3c[nH]c4ccc(F)cc34)ncc2c2c1cc(CN1CCOC1=O)n2C1C2CNC1C2)[C@@H]1CCCN1C (single isomer, unassigned) [Example 6a] |  |  |  | 100 to 1000 |
| COC(=O)N1CCC[C@@H]1c1cc2c(N3CC(C)(N(C)C)C3)nc3c(F)c(-c4cccc(Cl)c4Cl)ncc3c2n1[C@H]1[C@H]2CN[C@@H]1C2 [Example 22, Methyl (R)-2-(1-((1R,4R,5S)-2-azabicyclo[2.1.1]hexan-5-yl)-7-(2,3-dichlorophenyl)-4-(3-(dimethylamino)-3-methylazetidin-1-yl)-6-fluoro-1H-pyrrolo[3,2-c][1,6]naphthyridin-2-yl)pyrrolidine-1-carboxylate] |  | † | 100 to 1000 |  |
| C[C@H](Oc1nc2c(F)c(-c3cccc4c3OCCC4)ncc2c2c1cc([C@@H](C)n1ccccc1=O)n2[C@H]1[C@H]2CN[C@@H]1C2)[C@@H]1CCCN1C [Example 21, 1-((R)-1-(1-((1R,4R,5S)-2-Azabicyclo[2.1.1]hexan-5-yl)-7-(chroman-8-yl)-6-fluoro-4-((S)-1-((S)-1-methylpyrrolidin-2-yl)ethoxy)-1H-pyrrolo[3,2-c][1,6]naphthyridin-2-yl)ethyl)pyridin-2(1H)-one] |  | † | ≤ 100 |  |
| Cc1cc2c(O[C@@H](C)[C@@H]3CCCN3C)nc3c(F)c(N4CCc5ccccc54)ncc3c2n1C1C2CNC1C2 (single isomer, unassigned) [Example 8b] |  |  | 1000 to 5000 | 100 to 1000 |
| Cc1cc2c(O[C@@H](C)[C@@H]3CCCN3C)nc3c(F)c(N4CCc5ccccc54)ncc3c2n1C1C2CNC1C2 (single isomer, unassigned) [Example 8a] |  | † | 100 to 1000 |  |
| CN(C)C(=O)CCc1nc2c(N3CC(N(C)C)C3)nc3cc(-c4cc(O)cc5ccccc45)c(CCC#N)nc3c2n1C1C2CNC1C2 (single isomer, unassigned) [Example 17a, 3-(1-((endo)-2-azabicyclo[2.1.1]hexan-5-yl)-8-(2-cyanoethyl)-4-(3-(dimethylamino)azetidin-1-yl)-7-(3-hydroxynaphthalen-1-yl)-1H-imidazo[4,5-c][1,5]naphthyridin-2-yl)-N,N-dimethylpropanamide] |  | † | 1000 to 5000 |  |
| Cc1cc2c(O[C@@H](C)[C@@H]3CCCN3C)nc3c(F)c(-c4cc(O)cc5ccc(F)cc45)ncc3c2n1[C@H]1[C@H]2CN[C@@H]1C2 [Example 18, 4-(1-((1R,4R,5S)-2-Azabicyclo[2.1.1]hexan-5-yl)-6-fluoro-2-methyl-4-((S)-1-((S)-1-methylpyrrolidin-2-yl)ethoxy)-1H-pyrrolo[3,2-c][1,6]naphthyridin-7-yl)-6-fluoronaphthalen-2-ol] |  | † | ≤ 100 |  |
| CNC(=O)c1cccc(-c2nc3c(F)c(-c4cccc(C)c4Cl)ncc3c3c2cc([C@H]2CCCN2C(=O)OC)n3[C@H]2[C@H]3CN[C@@H]2C3)n1 [Example 24, Methyl (R)-2-(1-((1R,4R,5S)-2-azabicyclo[2.1.1]hexan-5-yl)-7-(2-chloro-3-methylphenyl)-6-fluoro-4-(6-(methylcarbamoyl)pyridin-2-yl)-1H-pyrrolo[3,2-c][1,6]naphthyridin-2-yl)pyrrolidine-1-carboxylate] |  | † | 5000 to 10000 |  |
| CC(=O)N1CCC[C@@H]1c1cc2c(O[C@@H](C)[C@@H]3CCCN3C)nc3c(F)c(-c4cccc5scnc45)ncc3c2n1[C@H]1[C@H]2CN[C@@H]1C2 [Example 19, 1-((R)-2-(7-(Benzo[d]thiazol-4-yl)-1-((1R,4R,5S)-2-azabicyclo[2.1.1]hexan-5-yl)-6-fluoro-4-((S)-1-((S)-1-methylpyrrolidin-2-yl)ethoxy)-1H-pyrrolo[3,2-c][1,6]naphthyridin-2-yl)pyrrolidin-1-yl)ethan-1-one] |  | † | ≤ 100 |  |
| COC(=O)N1CCC[C@@H]1c1cc2c(O[C@@H](C)[C@@H]3CCCN3C)nc3c(F)c(-c4cccc(Cl)c4Cl)ncc3c2n1[C@H]1[C@H]2CN[C@@H]1C2 [Example 23, Methyl (R)-2-(1-((1R,4R,5S)-2-azabicyclo[2.1.1]hexan-5-yl)-7-(2,3-dichlorophenyl)-6-fluoro-4-((S)-1-((S)-1-methylpyrrolidin-2-yl)ethoxy)-1H-pyrrolo[3,2-c][1,6]naphthyridin-2-yl)pyrrolidine-1-carboxylate] |  | † | ≤ 100 |  |
| Cc1nc2c(nc(N3CC(N(C)C)C3)c3nc(CCC(=O)N(C)C)n([C@@H]4[C@@H]5CN[C@H]4C5)c32)c(C)c1-c1cc(O)cc2ccccc12 (relative stereo) [Example 16, 3-(1-((endo)-2-azabicyclo[2.1.1]hexan-5-yl)-4-(3-(dimethylamino)azetidin-1-yl)-7-(3-hydroxynaphthalen-1-yl)-6,8-dimethyl-1H-imidazo[4,5-c][1,5]naphthyridin-2-yl)-N,N-dimethylpropanamide] |  |  |  | 1000 to 5000 |
| Cc1nc2c(F)c(-c3cc(O)cc4ccccc34)ncc2c2c1cc(CN1CCOC1=O)n2[C@@H]1[C@@H]2CN[C@H]1C2 (relative stereo) [Example 5, 3-((1-((endo)-2-azabicyclo[2.1.1]hexan-5-yl)-6-fluoro-7-(3-hydroxynaphthalen-1-yl)-4-methyl-1H-pyrrolo[3,2-c][1,6]naphthyridin-2-yl)methyl)oxazolidin-2-one] |  |  | 1000 to 5000 | 100 to 1000 |
| C[C@H](Oc1nc2c(F)c(-c3cc(O)cc4ccccc34)ncc2c2c1nc(CCC(=O)N(C)C)n2C1C2CNC1C2)[C@@H]1CCCN1C (single isomer, unassigned) [Example 9b] |  | † | ≤ 100 |  |
